# Read-outs that look alike come from different tables or passages of the source.
# Molecular target: LRRK2 (Homo sapiens (Human), UniProt Q5S007)
# Experiment: In Vitro LRRK2 Assay (LabChip 3000, fluorescently-labeled peptide substrate)
# Type: biochemical
# Details: read-out: Ki (μM), affinity values for LRRK2
# Description: This assay was used to determine a compound's potency in inhibiting activity of LRRK2 by determining, Kiapp, IC50, or percent inhibition values. In a polypropylene plate, LRRK2, fluorescently-labeled peptide substrate, ATP and test compound were incubated together. Using a LabChip 3000 (Caliper Life Sciences), after the reaction the substrate was separated by capillary electrophoresis into two populations: phosphorylated and unphosphorylated. The relative amounts of each were quantitated by fluorescence intensity. LRRK2 Ki was determined according to the equation: Y=V0*(1−((x+Ki*(1+S/Km)+Et)/(2*Et)−(((x+Ki*(1+S/Km)+Et)^2−(4*Et*x))^0.5)/(2*Et))).
# Ki values in Table 4 and elsewhere herein are shown in μM.
# Assay conditions and materials used were as follows:
# Compound Plate Preparation:
# For serial dilutions, 34.6 μl DMSO was added to columns 3-24.
# Total and Blank Preparation:
# In Complete Reaction Buffer, substrate was diluted to 4 μM. Equal volumes of Complete Reaction Buffer and 4 μM substrate were combined to obtain the blank. Equal volumes of Complete Reaction Buffer and 4 μM substrate were combined and to the combined solution was added 2× final LRRK2 concentration.
# To a 50 μl polypropylene plate, 5 μl/well buffer/substrate was added by hand to Blank wells. A Biomek FX was used to start the kinase reaction (“PLK SAR 23 ATP”). The following were added to the appropriate wells: • 2 μl compound+23 μl ATP; • 5 μl/well compound/ATP in Assay Plate; • 5 μl/well kinase/substrate in Assay Plate;
# The plate was incubated for 2 hours in the dark. Biomek FX was used to stop the kinase reaction (“PLK Stop”), and 10 μl/well Stop solution was added to the Assay Plate. Results were read on the LabChip 3000.
# The LabChip 3000 was run using the job “LRRK2 IC50” with the following job settings: • Pressure: −1.4 psi • Downstream voltage: −500 V • Upstream voltage: −2350 V • Post sample buffer sip time: 75 seconds • Post dye buffer sip time: 75 seconds • Final delay time: 200 seconds Parkinson's Disease Animal Model
# [1] = ATP 130 μM, substrate 1 μM, 2 hours, ambient temperature, LRRK2 variant not given
# LRRK2, sequence (Q5S007 whole entry G2019S): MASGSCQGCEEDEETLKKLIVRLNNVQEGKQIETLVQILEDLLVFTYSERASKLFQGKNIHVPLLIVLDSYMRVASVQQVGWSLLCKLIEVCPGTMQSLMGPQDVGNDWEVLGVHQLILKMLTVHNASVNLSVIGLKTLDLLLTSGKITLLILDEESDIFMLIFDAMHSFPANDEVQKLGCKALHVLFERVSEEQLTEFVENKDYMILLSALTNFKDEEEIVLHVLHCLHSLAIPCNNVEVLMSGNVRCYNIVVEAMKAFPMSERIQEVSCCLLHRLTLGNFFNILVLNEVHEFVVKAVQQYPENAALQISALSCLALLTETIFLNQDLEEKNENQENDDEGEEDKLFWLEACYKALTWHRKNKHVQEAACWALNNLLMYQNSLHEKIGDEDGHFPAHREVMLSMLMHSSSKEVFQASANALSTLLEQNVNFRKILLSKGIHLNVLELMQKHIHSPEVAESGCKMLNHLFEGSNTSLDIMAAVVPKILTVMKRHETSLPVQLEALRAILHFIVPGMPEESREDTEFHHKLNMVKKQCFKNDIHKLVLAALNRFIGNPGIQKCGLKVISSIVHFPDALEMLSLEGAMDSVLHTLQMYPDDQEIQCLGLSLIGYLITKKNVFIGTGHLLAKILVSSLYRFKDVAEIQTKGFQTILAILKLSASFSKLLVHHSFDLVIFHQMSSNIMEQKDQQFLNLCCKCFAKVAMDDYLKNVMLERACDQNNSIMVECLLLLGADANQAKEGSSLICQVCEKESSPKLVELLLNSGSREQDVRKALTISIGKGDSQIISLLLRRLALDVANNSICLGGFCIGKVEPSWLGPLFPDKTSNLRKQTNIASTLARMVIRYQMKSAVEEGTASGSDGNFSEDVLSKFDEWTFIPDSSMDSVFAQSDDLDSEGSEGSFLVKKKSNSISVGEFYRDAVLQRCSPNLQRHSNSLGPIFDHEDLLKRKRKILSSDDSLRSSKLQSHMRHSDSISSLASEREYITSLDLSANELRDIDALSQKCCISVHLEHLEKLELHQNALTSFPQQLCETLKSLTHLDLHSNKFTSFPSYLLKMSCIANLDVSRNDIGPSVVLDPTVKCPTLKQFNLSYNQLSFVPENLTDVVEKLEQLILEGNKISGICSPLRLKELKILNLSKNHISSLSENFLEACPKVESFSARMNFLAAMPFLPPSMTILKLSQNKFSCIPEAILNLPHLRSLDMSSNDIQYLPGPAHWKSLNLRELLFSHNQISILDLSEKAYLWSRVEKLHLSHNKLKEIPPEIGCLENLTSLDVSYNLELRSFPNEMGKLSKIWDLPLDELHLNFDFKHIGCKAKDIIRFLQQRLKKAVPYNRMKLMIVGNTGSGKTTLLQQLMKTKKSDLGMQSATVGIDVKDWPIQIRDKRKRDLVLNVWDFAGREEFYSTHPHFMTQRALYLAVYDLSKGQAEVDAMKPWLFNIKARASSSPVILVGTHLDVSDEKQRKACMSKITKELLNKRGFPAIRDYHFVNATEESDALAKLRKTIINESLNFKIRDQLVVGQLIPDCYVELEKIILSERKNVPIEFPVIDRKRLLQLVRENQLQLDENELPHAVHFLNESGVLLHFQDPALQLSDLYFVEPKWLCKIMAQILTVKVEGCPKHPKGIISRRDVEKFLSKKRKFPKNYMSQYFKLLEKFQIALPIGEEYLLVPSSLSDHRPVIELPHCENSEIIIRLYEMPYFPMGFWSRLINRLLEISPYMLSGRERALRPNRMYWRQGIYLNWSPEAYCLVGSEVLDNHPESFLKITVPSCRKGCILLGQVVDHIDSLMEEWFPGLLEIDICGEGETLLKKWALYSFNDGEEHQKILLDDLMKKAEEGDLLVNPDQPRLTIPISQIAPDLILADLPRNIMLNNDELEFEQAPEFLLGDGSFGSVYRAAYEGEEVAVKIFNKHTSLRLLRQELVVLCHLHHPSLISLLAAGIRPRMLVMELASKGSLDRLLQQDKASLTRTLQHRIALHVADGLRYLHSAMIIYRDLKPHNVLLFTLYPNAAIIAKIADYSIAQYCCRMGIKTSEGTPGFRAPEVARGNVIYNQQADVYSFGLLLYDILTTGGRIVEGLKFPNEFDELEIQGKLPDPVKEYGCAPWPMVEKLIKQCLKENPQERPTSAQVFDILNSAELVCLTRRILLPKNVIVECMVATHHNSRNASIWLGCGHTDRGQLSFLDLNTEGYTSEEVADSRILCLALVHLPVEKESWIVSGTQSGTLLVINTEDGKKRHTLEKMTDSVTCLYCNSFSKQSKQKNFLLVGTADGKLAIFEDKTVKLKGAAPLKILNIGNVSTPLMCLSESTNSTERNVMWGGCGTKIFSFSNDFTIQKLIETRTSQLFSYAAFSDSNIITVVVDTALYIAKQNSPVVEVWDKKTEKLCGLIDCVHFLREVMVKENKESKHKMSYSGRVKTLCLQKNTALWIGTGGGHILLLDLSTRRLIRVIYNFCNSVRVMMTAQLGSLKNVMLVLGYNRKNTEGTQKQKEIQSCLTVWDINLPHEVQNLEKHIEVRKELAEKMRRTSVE
Compound,Ki [1] [µM],Ki [µM]
"O=C(c1ccc(CCc2n[nH]c3ccnc(NC4CCCCC4)c23)cc1)N1CCN(C2CC2)CC1 [Example 8, (4-{2-[4-(Cyclohexylamino)-1H-pyrazolo[4,3-c]pyridin-3-yl]ethyl}phenyl)(4-cyclopropylpiperazin-1-yl)methanone]",0.017,
"CNC(=O)c1cccc(-c2[nH]nc3cc(C)nc(OC4CCOCC4)c23)c1 [Example 171, N-methyl-3-(6-methyl-4-(tetrahydro-2H-pyran-4-yloxy)-1H-pyrazolo[4,3-c]pyridin-3-yl)benzamide]",0.154,
"CC(C)n1cc(-c2n[nH]c3ccnc(OC4CCOCC4)c23)cc1C(=O)N1CCOCC1 [Example 65, (1-isopropyl-4-(4-(tetrahydro-2H-pyran-4-yloxy)-1H-pyrazolo[4,3-c]pyridin-3-yl)-1H-pyrrol-2-yl)(morpholino)methanone]",0.039,
"3-(1-(oxetan-3-yl)-1H-benzo[d]imidazol-5-yl)-4-(tetrahydro-2H-pyran-4-yloxy)-1H-pyrazolo[4,3-c]pyridine [Example 125]",,0.056
"c1cc2[nH]nc(-c3cnn(C4CCOC4)c3)c2c(OC2CCOCC2)n1 (centres unmarked) [Example 98, 4-(Tetrahydro-2H-pyran-4-yloxy)-3-(1-(tetrahydrofuran-3-yl)-1H-pyrazol-4-yl)-1H-pyrazolo[4,3-c]pyridine]",0.005,
"COc1cc(-c2n[nH]c3ccnc(OC)c23)ccn1 [Example 106, 4-Methoxy-3-(2-methoxypyridin-4-yl)-1H-pyrazolo[4,3-c]pyridine]",0.08,
"CN(C)C(=O)c1cccc(-c2cc(-c3n[nH]c4ccnc(OC5CCOCC5)c34)ccn2)c1 [Example 203, N,N-dimethyl-3-(4-(4-(tetrahydro-2H-pyran-4-yloxy)-1H-pyrazolo[4,3-c]pyridin-3-yl)pyridin-2-yl)benzamide]",0.018,
"COc1nccc2[nH]nc(-c3cnn(C4CCOCC4)c3)c12 [Example 184, 4-methoxy-3-(1-(tetrahydro-2H-pyran-4-yl)-1H-pyrazol-4-yl)-1H-pyrazolo[4,3-c]pyridine]",0.033,
"c1cc2n[nH]c(C3CC3)c2c(OC2CCOCC2)n1 [Example 28, 3-Cyclopropyl-4-(tetrahydro-2H-pyran-4-yloxy)-1H-pyrazolo[4,3-c]pyridine]",0.035,
"CC(C)c1nc(-c2n[nH]c3ccnc(NC4CCOCC4)c23)n[nH]1 [Example 168, 3-(5-Isopropyl-4H-1,2,4-triazol-3-yl)-N-(tetrahydro-2H-pyran-4-yl)-1H-pyrazolo[4,3-c]pyridin-4-amine]",0.007,
"c1cc2[nH]nc(-c3cnn(C4CCOCC4)c3)c2c(OC2CCOCC2)n1 [Example 186, 3-(1-(tetrahydro-2H-pyran-4-yl)-1H-pyrazol-4-yl)-4-(tetrahydro-2H-pyran-4-yloxy)-1H-pyrazolo[4,3-c]pyridine]",0.013,
"Cc1[nH]nc2cc(C3CC3)nc(OC3CCCCC3)c12 [Example 148, 4-(Cyclohexyloxy)-6-cyclopropyl-3-methyl-1H-pyrazolo[4,3-c]pyridine]",0.271,
"CC(C)n1cc(-c2n[nH]c3ccnc(OC4CCOCC4)c23)cc1C(=O)NC1COC1 [Example 70, 1-isopropyl-N-(oxetan-3-yl)-4-(4-(tetrahydro-2H-pyran-4-yloxy)-1H-pyrazolo[4,3-c]pyridin-3-yl)-1H-pyrrole-2-carboxamide]",0.003,
"COc1nccc2[nH]nc(-c3ccnc(N4[C@@H]5CC[C@H]4COC5)c3)c12 [Example 117, 8-(4-(4-Methoxy-1H-pyrazolo[4,3-c]pyridin-3-yl)pyridin-2-yl)-3-oxa-8-azabicyclo[3.2.1]octane]",0.08,
"CNC(=O)c1cccc(-c2n[nH]c3ccnc(OC4CCOCC4)c23)c1 [Example 160, N-Methyl-3-(4-(tetrahydro-2H-pyran-4-yloxy)-1H-pyrazolo[4,3-c]pyridin-3-yl)benzamide]",0.025,
Cc1[nH]nc2ccnc(OC3CCOC3)c12 (centres unmarked) [Example 31],0.158,
"FC(F)(F)COc1nccc2[nH]nc(-c3ccnc(N4CCOCC4)c3)c12 [Example 74, 4-(4-(4-(2,2,2-Trifluoroethoxy)-1H-pyrazolo[4,3-c]pyridin-3-yl)pyridin-2-yl)morpholine]",0.031,
"COc1nccc2[nH]nc(-c3cnn(CC(F)(F)F)c3)c12 [Example 88, 4-Methoxy-3-(1-(2,2,2-trifluoroethyl)-1H-pyrazol-4-yl)-1H-pyrazolo[4,3-u]pyridine]",0.025,
"COc1nccc2[nH]nc(-c3ccnc(N4C[C@@H](C)O[C@@H](C)C4)c3)c12 [Example 238, (2S,6R)-4-(4-(4-methoxy-1H-pyrazolo[4,3-c]pyridin-3-yl)pyridin-2-yl)-2,6-dimethylmorpholine]",0.025,
"COc1nccc2[nH]nc(-c3cnn(C4CCOC4)c3)c12 (centres unmarked) [Example 234, 4-methoxy-3-(1-(tetrahydrofuran-3-yl)-1H-pyrazol-4-yl)-1H-pyrazolo[4,3-c]pyridine]",0.023,
"c1cc2[nH]nc(-c3cnn(C4CCCC4)c3)c2c(OC2CCOCC2)n1 [Example 39, 3-(1-Cyclopentyl-1H-pyrazol-4-yl)-4-(tetrahydro-2H-pyran-4-yloxy)-1H-pyrazolo[4,3-c]pyridine]",0.006,

# The next lines start with results.
Ki [1] [µM],Compound,Ki [µM]
0.011,"CC(=O)Nc1ccc(-c2cc(-c3n[nH]c4ccnc(OC5CCOCC5)c34)ccn2)cc1 [Example 210, N-(4-(4-(4-(tetrahydro-2H-pyran-4-yloxy)-1H-pyrazolo[4,3-c]pyridin-3-yl)pyridin-2-yl)phenyl)acetamide]",
0.006,"CN1CCN(c2cc(-c3n[nH]c4ccnc(OC5CCOCC5)c34)ccn2)CC1 [Example 14, 3-[2-(4-Methylpiperazin-1-yl)pyridin-4-yl]-4-(tetrahydro-2H-pyran-4-yloxy)-1H-pyrazolo[4,3-c]pyridine]",
0.029,"COc1nccc2[nH]nc(-c3ccnc(N4CCOCC4)c3)c12 [Example 107, 4-(4-(4-Methoxy-1H-pyrazolo[4,3-c]pyridin-3-yl)pyridin-2-yl)morpholine]",
0.026,"c1cc(-c2cc(-c3n[nH]c4ccnc(OC5CCOCC5)c34)ccn2)ccn1 [Example 198, 3-(2,4′-bipyridin-4-yl)-4-(tetrahydro-2H-pyran-4-yloxy)-1H-pyrazolo[4,3-c]pyridine]",
0.01,"Cn1cc(-c2cc(-c3n[nH]c4ccnc(OC5CCOCC5)c34)ccn2)cn1 [Example 116, 3-(2-(1-Methyl-1H-pyrazol-4-yl)pyridin-4-yl)-4-(tetrahydro-2H-pyran-4-yloxy)-1H-pyrazolo[4,3-c]pyridine]",
0.026,"COc1nccc2[nH]nc(-c3ccnc(N4CCCC4)c3)c12 [Example 119, 4-Methoxy-3-(2-(pyrrolidin-1-yl)pyridin-4-yl)-1H-pyrazolo[4,3-c]pyridine]",
0.136,"c1cc(-c2n[nH]c3ccnc(OC4CCOCC4)c23)cc(NC2COC2)n1 [Example 113, N-(Oxetan-3-yl)-4-(4-(tetrahydro-2H-pyran-4-yloxy)-1H-pyrazolo[4,3-c]pyridin-3-yl)pyridin-2-amine]",
0.006,"CC1CCCN(c2cc(-c3n[nH]c4ccnc(OC5CCOCC5)c34)ccn2)C1 (centres unmarked) [Example 111, 3-(2-(3-Methylpiperidin-1-yl)pyridin-4-yl)-4-(tetrahydro-2H-pyran-4-yloxy)-1H-pyrazolo[4,3-c]pyridine]",
0.035,"Cc1cc2[nH]nc(-c3ccnc(N4CCOCC4)c3)c2c(OC2CCOCC2)n1 [Example 172, 4-(4-(6-methyl-4-(tetrahydro-2H-pyran-4-yloxy)-1H-pyrazolo[4,3-c]pyridin-3-yl)pyridin-2-yl)morpholine]",
0.032,"CC(C)n1cc2ccc(-c3n[nH]c4ccnc(OC5CCOCC5)c34)cc2n1 [Example 143, 3-(2-isopropyl-2H-indazol-6-yl)-4-(tetrahydro-2H-pyran-4-yloxy)-1H-pyrazolo[4,3-c]pyridine]",
0.016,"CC(Oc1nccc2[nH]nc(-c3ccnc(N4CCOCC4)c3)c12)C(F)(F)F (centres unmarked) [Example 177, 4-(4-(4-(1,1,1-trifluoropropan-2-yloxy)-1H-pyrazolo[4,3-c]pyridin-3-yl)pyridin-2-yl)morpholine]",
0.13,"N#Cc1cc(-c2n[nH]c3ccnc(OC4CCOCC4)c23)ccn1 [Example 174, 4-(4-(tetrahydro-2H-pyran-4-yloxy)-1H-pyrazolo[4,3-c]pyridin-3-yl)picolinonitrile]",
0.065,"c1cc(-c2n[nH]c3ccnc(OC4CCOCC4)c23)nc(N2CCOCC2)n1 [Example 84, 4-(4-(4-(tetrahydro-2H-pyran-4-yloxy)-1H-pyrazolo[4,3-c]pyridin-3-yl)pyrimidin-2-yl)morpholine]",
0.01,"c1cc2[nH]nc(-c3ccc4c(c3)ncn4C3CCOC3)c2c(OC2CCOCC2)n1 (centres unmarked) [Example 129, 4-(tetrahydro-2H-pyran-4-yloxy)-3-(1-(tetrahydrofuran-3-yl)-1H-benzo[d]imidazol-5-yl)-1H-pyrazolo[4,3-c]pyridine]",
